Data: paper PMC8691691 (ACS Chemical Neuroscience, 2021)
Positions count from the first letter of the chain named. Read-outs that look alike come from different tables or passages of the source.

Columns and labels:
Assay in all cases: [3H]glycine transport by GlyT2 mutant in COS7 cells
Type in all cases: cell-based
GlyT2 A639C mutant = target: T1, GlyT2 A639C mutant (Rattus norvegicus, UniProt P58295, A639C)
T1 construct: expressed in transfected cells; host or cells: COS7
T1 sequence (P58295 1-799 A639C): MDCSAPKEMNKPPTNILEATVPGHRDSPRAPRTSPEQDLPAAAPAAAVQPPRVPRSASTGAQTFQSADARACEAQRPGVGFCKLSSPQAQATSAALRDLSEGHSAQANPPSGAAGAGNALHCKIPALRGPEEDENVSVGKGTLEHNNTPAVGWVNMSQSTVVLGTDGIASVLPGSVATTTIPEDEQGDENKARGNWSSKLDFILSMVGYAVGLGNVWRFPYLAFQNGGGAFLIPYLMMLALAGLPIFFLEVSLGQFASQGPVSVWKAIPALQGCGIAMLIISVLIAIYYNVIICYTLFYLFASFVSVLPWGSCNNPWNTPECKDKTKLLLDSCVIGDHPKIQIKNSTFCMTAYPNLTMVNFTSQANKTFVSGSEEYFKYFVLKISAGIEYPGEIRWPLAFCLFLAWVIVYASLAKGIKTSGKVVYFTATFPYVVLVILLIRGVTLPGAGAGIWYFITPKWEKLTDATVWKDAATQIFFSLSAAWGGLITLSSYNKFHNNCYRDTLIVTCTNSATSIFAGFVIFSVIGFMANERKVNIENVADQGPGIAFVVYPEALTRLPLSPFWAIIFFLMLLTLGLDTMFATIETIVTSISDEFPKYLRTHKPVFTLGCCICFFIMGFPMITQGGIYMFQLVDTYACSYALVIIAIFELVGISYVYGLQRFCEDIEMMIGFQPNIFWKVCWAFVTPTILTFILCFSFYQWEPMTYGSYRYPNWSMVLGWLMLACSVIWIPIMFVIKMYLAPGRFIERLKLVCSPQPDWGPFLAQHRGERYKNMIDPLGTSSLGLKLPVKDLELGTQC
Description: (§1) To validate the predicted interactions between the inhibitors and GlyT2, we used systematic site-directed mutagenesis to construct substitution mutants of the potential residues involved in ligand binding. […] The GlyT2 residues predicted to interact with the inhibitors through its side chain were replaced by amino acids expected to force the loss of the interaction. In the cases where the interaction occurred through the backbone, the inserted amino acid sought to alter the disposition of the substituted residue to lose the coordination.
(§2) Substitution mutants were generated with the QuikChange II Site-Directed Mutagenesis kit (Agilent Technologies, Santa Clara, CA, USA), using rGlyT2 or rGlyT1 subcloned in pCDNA3.[47] The complete coding region of all of the constructs was sequenced to verify that only the desired mutation had been introduced. […] COS7 cells were grown and transfected using Turbofect Transfection Reagent (Thermo Fisher Scientific, Waltham, MA, USA), following the manufacturer’s protocol (2 μL reagent/μg of DNA). Cells were incubated for 48 h at 37 °C until used.
(§3) At the end of the desired time (usually 10 min), reactions were washed and terminated by aspiration. […] A nonlinear curve fitting method was used to obtain IC50 values using Graphpad Prism software, version 6.0, Graphpad, San Diego, CA, USA.

GlyT2 I285F mutant = target: T2, GlyT2 I285F mutant (Rattus norvegicus, UniProt P58295, I285F)
T2 construct: expressed in transfected cells; host or cells: COS7
T2 sequence (P58295 1-799 I285F): T1 sequence (P58295 1-799 A639C) with I285F, C639A
Description: as §1, §2, §3

GlyT2 G214L mutant = target: T3, GlyT2 G214L mutant (Rattus norvegicus, UniProt P58295, G214L)
T3 construct: expressed in transfected cells; host or cells: COS7
T3 sequence (P58295 1-799 G214L): T1 sequence (P58295 1-799 A639C) with G214L, C639A
Description: as §1, §2, §3

| SMILES | IC50 (GlyT2 A639C mutant) [nM] | IC50 (GlyT2 I285F mutant) [nM] | IC50 (GlyT2 G214L mutant) [nM] | IC50 (GlyT2 A639C mutant; read-out: IC50 (Table S1)) [nM] | IC50 (GlyT2 I285F mutant; read-out: IC50 (Table S1)) [nM] | IC50 (GlyT2 G214L mutant; read-out: IC50 (Table S1)) [nM] |
| --- | --- | --- | --- | --- | --- | --- |
| COc1cc(C(=O)NCC2(N(C)C)CCCC2)cc(OC)c1OCc1ccccc1 [ORG25543, N-[[1-(dimethylamino)cyclopentyl]methyl]-3,5-dimethoxy-4-(phenylmethoxy)benzamide] | 51 ± 2 | 15 ± 4 | 17 ± 10 | – | – | – |
| N[C@@H](COC(c1cccc(F)c1)c1ccccc1OCc1ccccc1)C(=O)O (stereo partly drawn) [ALX1393] | – | – | – | 22 ± 4 | 91 ± 6 | 38 ± 3 |
